In the supplement of paper PMC10307832:

What was measured:
Experiment in all cases: relative viability (nuclei count vs DMSO), 5 days (fraction); higher = more cells survive
NCI-H1395 = system: NCI-H1395
Summary of the method: (§1)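 Lung cancer cell lines, seeded in 1536-well plates, were treated the following day by pin tool with a single drug or with five library-drug doses (not always all listed) in √10 steps on top of a fixed anchor-drug dose. Cells were fixed and nuclei stained in one step after 5 days, and nuclei were counted. Relative viability is the nuclei count for treated wells divided by that for vehicle wells, reported as medians of duplicate plates.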

UMC-11 = system: UMC-11
Summary of the method: as §1

ABC-1 = system: ABC-1
Summary of the method: as §1

201T = system: 201T
Summary of the method: as §1

NCI-H1915 = system: NCI-H1915
Summary of the method: as §1

NCI-H661 = system: NCI-H661
Summary of the method: as §1

NCI-H2405 = system: NCI-H2405
Summary of the method: as §1

EMC-BAC-2 = system: EMC-BAC-2
Summary of the method: as §1

HCC-78 = system: HCC-78
Summary of the method: as §1

NCI-H1437 = system: NCI-H1437
Summary of the method: as §1

NCI-H1793 = system: NCI-H1793
Summary of the method: as §1

NCI-H23 = system: NCI-H23
Summary of the method: as §1

SK-LU-1 = system: SK-LU-1
Summary of the method: as §1

NCI-H1651 = system: NCI-H1651
Summary of the method: as §1

NCI-H1792 = system: NCI-H1792
Summary of the method: as §1

NCI-H2023 = system: NCI-H2023
Summary of the method: as §1

NCI-H647 = system: NCI-H647
Summary of the method: as §1

NCI-H1975 = system: NCI-H1975
Summary of the method: as §1

RERF-LC-KJ = system: RERF-LC-KJ
Summary of the method: as §1

LOU-NH91 = system: LOU-NH91
Summary of the method: as §1

EPLC-272H = system: EPLC-272H
Summary of the method: as §1

LCLC-103H = system: LCLC-103H
Summary of the method: as §1

NCI-H1734 = system: NCI-H1734
Summary of the method: as §1

Structure (SMILES): O=c1[nH]c2ccccc2n1C1CCN(CCCC(c2ccc(F)cc2)c2ccc(F)cc2)CC1 [Pimozide] + COc1cccc2cc(-c3nc([C@H]4CC[C@H](C(=O)O)CC4)n4ncnc(N)c34)[nH]c12 [OSI-027] (partner 0.5 µM)
- relative viability (NCI-H1395; first compound 0.08 µM): 0.642
- relative viability (NCI-H1395; first compound 0.253 µM): 0.611
- relative viability (NCI-H1395; first compound 0.8 µM): 0.565
- relative viability (NCI-H1395; first compound 2.53 µM): 0.629
- relative viability (NCI-H1395; first compound 8 µM): 0.557
- relative viability (UMC-11; first compound 0.08 µM): 0.515
- relative viability (UMC-11; first compound 0.253 µM): 0.421
- relative viability (UMC-11; first compound 0.8 µM): 0.51
- relative viability (UMC-11; first compound 2.53 µM): 0.357
- relative viability (UMC-11; first compound 8 µM): 0.312
- relative viability (ABC-1; first compound 0.08 µM): 0.514
- relative viability (ABC-1; first compound 0.253 µM): 0.496
- relative viability (ABC-1; first compound 0.8 µM): 0.422
- relative viability (ABC-1; first compound 2.53 µM): 0.351
- relative viability (ABC-1; first compound 8 µM): 0.354
- relative viability (201T; first compound 0.08 µM): 0.821
- relative viability (201T; first compound 0.253 µM): 0.825
- relative viability (201T; first compound 0.8 µM): 0.711
- relative viability (201T; first compound 2.53 µM): 0.709
- relative viability (201T; first compound 8 µM): 0.584
- relative viability (NCI-H1915; first compound 0.08 µM): 0.6
- relative viability (NCI-H1915; first compound 0.253 µM): 0.575
- relative viability (NCI-H1915; first compound 0.8 µM): 0.384
- relative viability (NCI-H1915; first compound 2.53 µM): 0.581
- relative viability (NCI-H1915; first compound 8 µM): 0.478
- relative viability (NCI-H661; first compound 0.08 µM): 0.691
- relative viability (NCI-H661; first compound 0.253 µM): 0.647
- relative viability (NCI-H661; first compound 0.8 µM): 0.624
- relative viability (NCI-H661; first compound 2.53 µM): 0.533
- relative viability (NCI-H661; first compound 8 µM): 0.538
- relative viability (NCI-H2405; first compound 0.08 µM): 0.654
- relative viability (NCI-H2405; first compound 0.253 µM): 0.576
- relative viability (NCI-H2405; first compound 0.8 µM): 0.689
- relative viability (NCI-H2405; first compound 2.53 µM): 0.665
- relative viability (NCI-H2405; first compound 8 µM): 0.707
- relative viability (EMC-BAC-2; first compound 0.08 µM): 0.353
- relative viability (EMC-BAC-2; first compound 0.253 µM): 0.337
- relative viability (EMC-BAC-2; first compound 0.8 µM): 0.342
- relative viability (EMC-BAC-2; first compound 2.53 µM): 0.338
- relative viability (EMC-BAC-2; first compound 8 µM): 0.391
- relative viability (HCC-78; first compound 0.08 µM): 0.439
- relative viability (HCC-78; first compound 0.8 µM): 0.345
- relative viability (HCC-78; first compound 2.53 µM): 0.36
- relative viability (HCC-78; first compound 8 µM): 0.354
- relative viability (NCI-H1437; first compound 0.08 µM): 0.93
- relative viability (NCI-H1437; first compound 0.253 µM): 0.888
- relative viability (NCI-H1437; first compound 0.8 µM): 0.883
- relative viability (NCI-H1437; first compound 2.53 µM): 0.89
- relative viability (NCI-H1437; first compound 8 µM): 0.676
- relative viability (NCI-H1793; first compound 0.253 µM): 0.239
- relative viability (NCI-H1793; first compound 0.8 µM): 0.205
- relative viability (NCI-H1793; first compound 2.53 µM): 0.245
- relative viability (NCI-H1793; first compound 8 µM): 0.115
- relative viability (NCI-H23; first compound 0.08 µM): 0.696
- relative viability (NCI-H23; first compound 0.253 µM): 0.603
- relative viability (NCI-H23; first compound 0.8 µM): 0.379
- relative viability (NCI-H23; first compound 2.53 µM): 0.443
- relative viability (NCI-H23; first compound 8 µM): 0.477
- relative viability (SK-LU-1; first compound 0.08 µM): 0.417
- relative viability (SK-LU-1; first compound 0.253 µM): 0.331
- relative viability (SK-LU-1; first compound 0.8 µM): 0.285
- relative viability (SK-LU-1; first compound 2.53 µM): 0.231
- relative viability (SK-LU-1; first compound 8 µM): 0.201
- relative viability (NCI-H1651; first compound 0.08 µM): 0.657
- relative viability (NCI-H1651; first compound 0.253 µM): 0.7
- relative viability (NCI-H1651; first compound 0.8 µM): 0.633
- relative viability (NCI-H1651; first compound 2.53 µM): 0.757
- relative viability (NCI-H1651; first compound 8 µM): 0.596
- relative viability (NCI-H1792; first compound 0.08 µM): 0.758
- relative viability (NCI-H1792; first compound 0.253 µM): 0.691
- relative viability (NCI-H1792; first compound 0.8 µM): 0.666
- relative viability (NCI-H1792; first compound 2.53 µM): 0.663
- relative viability (NCI-H1792; first compound 8 µM): 0.736
- relative viability (NCI-H2023; first compound 0.08 µM): 0.418
- relative viability (NCI-H2023; first compound 0.253 µM): 0.465
- relative viability (NCI-H2023; first compound 0.8 µM): 0.413
- relative viability (NCI-H2023; first compound 2.53 µM): 0.307
- relative viability (NCI-H2023; first compound 8 µM): 0.231
- relative viability (NCI-H647; first compound 0.08 µM): 0.656
- relative viability (NCI-H647; first compound 0.253 µM): 0.71
- relative viability (NCI-H647; first compound 0.8 µM): 0.677
- relative viability (NCI-H647; first compound 2.53 µM): 0.611
- relative viability (NCI-H647; first compound 8 µM): 0.404
- relative viability (NCI-H1975; first compound 0.08 µM): 0.838
- relative viability (NCI-H1975; first compound 0.253 µM): 0.695
- relative viability (NCI-H1975; first compound 0.8 µM): 0.753
- relative viability (NCI-H1975; first compound 2.53 µM): 0.651
- relative viability (NCI-H1975; first compound 8 µM): 0.561
- relative viability (RERF-LC-KJ; first compound 0.08 µM): 0.509
- relative viability (RERF-LC-KJ; first compound 0.253 µM): 0.513
- relative viability (RERF-LC-KJ; first compound 0.8 µM): 0.52
- relative viability (RERF-LC-KJ; first compound 2.53 µM): 0.427
- relative viability (RERF-LC-KJ; first compound 8 µM): 0.448
- relative viability (LOU-NH91; first compound 0.08 µM): 0.442
- relative viability (LOU-NH91; first compound 0.253 µM): 0.699
- relative viability (LOU-NH91; first compound 0.8 µM): 0.638
- relative viability (LOU-NH91; first compound 2.53 µM): 0.729
- relative viability (LOU-NH91; first compound 8 µM): 0.708
- relative viability (EPLC-272H; first compound 0.08 µM): 0.276
- relative viability (EPLC-272H; first compound 0.253 µM): 0.302
- relative viability (EPLC-272H; first compound 0.8 µM): 0.25
- relative viability (EPLC-272H; first compound 2.53 µM): 0.176
- relative viability (EPLC-272H; first compound 8 µM): 0.234
- relative viability (LCLC-103H; first compound 0.08 µM): 0.482
- relative viability (LCLC-103H; first compound 0.253 µM): 0.452
- relative viability (LCLC-103H; first compound 0.8 µM): 0.384
- relative viability (LCLC-103H; first compound 2.53 µM): 0.425
- relative viability (LCLC-103H; first compound 8 µM): 0.423
- relative viability (NCI-H1734; first compound 0.08 µM): 0.604
- relative viability (NCI-H1734; first compound 0.253 µM): 0.625
- relative viability (NCI-H1734; first compound 2.53 µM): 0.581
- relative viability (NCI-H1734; first compound 8 µM): 0.549
